A short description of this data set: Active agent release from scaffold or scaffold+matrix in PBS at 37° C. The class given is physicochemical. The method, then: Release of nanoparticle-encapsulated active agent (either pirfenidone or prednisolone) from a matrix and release of active agent from a scaffold was assessed in the same manner. In short, one sample (of either a printed mesh (scaffold) or mesh+gel (scaffold and matrix)) per 1.5 mL eppendorf tube was incubated in 1 mL of PBS at 37° C. under agitation in a heated water bath. The release buffer was completely exchanged at selected time points of T=4 hrs, T=24 hrs, T=48 hrs, T=1 week, T=2 weeks, T=3 weeks, and T=4 weeks, T=6 weeks, T=8 weeks, T=10 weeks, T=12 weeks with samples stored at -20° C. until analysis. Release studies were undertaken for up to 28 days and released active agent concentrations were determined via extrapolation from a standard curve. Blank scaffolds (containing no active agent) were tested and readings were subtracted as an additional background control. Samples containing pirfenidone were analysed at 317 nm and samples containing prednisolone were analysed at 245 nm. Using either 3D drug printing or nanoparticle incorporation, it was possible to achieve a rapid release of active agent in the first 24 hours as well as a continuous release of drug over a 28 day period (FIG. 19).

As for `Cc1ccc(=O)n(-c2ccccc2)c1` [pirfenidone, 5-Methyl-1-phenylpyridin-2-one], the “pirfenidone release when scaffold combined with the hyaluronic acid matrix” value (higher (50 kDa) molecular weight PCL scaffold, in the presence of the hydrated matrix, FIG. 9B) was “negligible difference” and the “pirfenidone release when scaffold combined with the hyaluronic acid matrix” value (lower molecular weight PCL scaffold, added to the matrix, FIG. 9A) was “release was slowed”.

On to `C[C@]12C=CC(=O)C=C1CC[C@@H]1[C@@H]2[C@@H](O)C[C@@]2(C)[C@H]1CC[C@]2(O)C(=O)CO` [prednisolone, 11β-11,17,21-Trihydroxypregna-1,4-diene-3,20-dione], for which the “daily and cumulative prednisolone drug release” value (from 3D printed PCL scaffolds with no surrounding matrix, FIG. 10) was “biphasic release up to 28 days”. The cumulative prednisolone release entry (from nanoparticles in a freeze-dried scaffold and hyaluronic acid matrix, FIG. 11) was “rapid and sustained release”.

For the origin of these results see patent US20230285280A1, “A DEVICE FOR USE IN THE DELIVERY OF AN ACTIVE AGENT” (ROYAL COLLEGE OF SURGEONS IN IRELAND, priority 2020, published 2023).
